Earlier results, collected in patent US12263173B2, “PLK1 inhibitor in combination with anti-angiogenics for treating metastatic cancer” (CARDIFF ONCOLOGY, INC., priority 2022, dated 2025).
Where two headings read alike, the source gives them in different places.

Tests used:
[1] = system: patients with and without prior bevacizumab treatment; conditions: second line
[2] = system: patients with advanced/metastatic solid tumors; conditions: reversible
PLK1 = PLK1 (Homo sapiens, UniProt P53350)
[3] = system: HT29 human colon adenocarcinoma xenografts; conditions: in combination with irinotecan
[4] = system: disseminated model of AML
[5] = system: patients with AML who were treatment naïve yet unsuitable for induction therapy; conditions: administered intravenously in combination with LDAC
patients with AML = conditions: in combination with LDAC
[6] = bev naïve (without prior bevacizumab)

Chain of PLK1 (P53350 whole entry): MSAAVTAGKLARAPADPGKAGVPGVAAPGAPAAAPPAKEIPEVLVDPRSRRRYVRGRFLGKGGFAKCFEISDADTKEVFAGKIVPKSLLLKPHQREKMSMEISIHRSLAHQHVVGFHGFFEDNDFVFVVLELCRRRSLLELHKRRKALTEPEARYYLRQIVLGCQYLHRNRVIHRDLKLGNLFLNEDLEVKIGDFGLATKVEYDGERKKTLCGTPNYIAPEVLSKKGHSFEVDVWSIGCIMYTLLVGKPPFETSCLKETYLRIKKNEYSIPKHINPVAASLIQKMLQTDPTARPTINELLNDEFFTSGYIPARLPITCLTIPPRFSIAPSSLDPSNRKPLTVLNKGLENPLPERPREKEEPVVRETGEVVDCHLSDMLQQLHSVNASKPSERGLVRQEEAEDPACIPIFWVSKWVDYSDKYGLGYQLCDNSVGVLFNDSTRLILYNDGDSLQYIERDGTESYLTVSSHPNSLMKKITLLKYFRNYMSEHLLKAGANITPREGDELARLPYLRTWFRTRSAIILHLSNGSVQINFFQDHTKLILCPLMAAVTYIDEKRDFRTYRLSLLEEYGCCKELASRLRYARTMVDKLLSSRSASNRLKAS

Compound: bev: anti-angiogenics (angiogenesis inhibitor), Avastin
- mOS [1, 6]: 13.9 months
- mPFS [1, 6]: 6.9 months
- mOS ([1]; prior bev): 12.5 months
- mPFS ([1]; prior bev): 6.7 months

Compound: CN1CCN(c2ccc(OC(F)(F)F)c(Nc3ncc4c(n3)-c3c(c(C(N)=O)nn3CCO)CC4)c2)CC1 [onvansertib, 1-(2-hydroxyethyl)-8-{[5-(4-methylpiperazin-1-yl)-2-(trifluoromethoxy)phenyl]amino}-4,5-dihydro-1H-pyrazolo[4,3-h]quinazoline-3-carboxamide]
- inhibition of cell proliferation (AML cell lines): nanomolar concentrations
- xenograft tumor growth (xenograft models; well tolerated doses in mice after oral administration): inhibits xenograft tumor growth
- tumor growth (xenograft models; xenograft models of AML): inhibited
- recovery of hematologic toxicities [2]: ≤ 3 weeks
- specificity for PLK1 (PLK1; among a panel of 296 kinases, including other PLK members): high specificity
- potency and specificity for the PLK1 isozyme versus volasertib (PLK1; compared with volasertib (BI6727)): higher degree of potency and specificity
- tumor regression compared to each agent alone [3]: enhanced tumor regression
- survival of animals ([4]; in combination therapy with cytarabine): prolonged survival
- effect on cytarabine antitumor activity ([4]; in combination with cytarabine): significantly increased

Compound: CC[C@@H]1C(=O)N(C)c2cnc(Nc3ccc(C(=O)N[C@H]4CC[C@H](N5CCN(CC6CC6)CC5)CC4)cc3OC)nc2N1C(C)C [volasertib]
- OS compared with LDAC alone [5]: significant increase in OS
- benefit of the combination (patients with AML): no benefit
